For orientation: viability, T/C means the ratio of treated to control. Usually IC50 stands for the concentration needed to halve the response being measured.

This test concerns 931267-113-T-J1-PDC multicell spheroid viability. The test is described as follows: Anticancer human tumor 931267-113-T-J1-PDC patient-derived colon adenocarcinoma cell line growth inhibition [PI3K]. To be noted: for viability, T/C: stronger effect = lower value. From the text:
Combinatorial screen of targeted agents with the PI3K inhibitors inavolisib, alpelisib, duvelisib, and copanlisib in multi-cell type tumor spheroids
A high-throughput screen of multi-cell type tumor spheroids was designed to identify active combinations of targeted small molecules and PI3K pathway inhibitors. Complex spheroids include a stromal component modeled by human endothelial cells (HUVEC) and fibroblasts modeled by human mesenchymal stem cells (MSCs). The concentration ranges selected for each drug and investigational agent were based upon clinically achievable concentrations if the clinical Cmax of the agent was known.
Compounds. The drugs and investigational agents: inavolisib (NSC800729), alpelisib (NSC765974), duvelisib (NSC772469), copanlisib (NSC816437), ipatasertib (NSC767898), afuresertib (NSC778305), talazoparib (NSC767125), sapanisertib (NSC764658), selumetinib (NSC741078), tovorafenib (DAY101, NSC766906), vemurafenib (NSC761431), ravoxertinib (NSC781343), sotorasib (NSC818433), MRTX1133 (NSC 836407), abemaciclib (NSC 768073), palbociclib (NSC758247), venetoclax (NSC 766270), SY5609 (NSC837396), enzalutamide (NSC755605), and darolutamide (NSC825331), were obtained from the National Cancer Institute (NCI) Developmental Therapeutics Program Chemical Repository. The FDA-approved anticancer drug set is available from the NCI Developmental Therapeutics Program. […] The stock solutions were prepared in dimethyl sulfoxide (DMSO, Sigma-Aldrich, St. Louis, MO, cat. D2650) at 800-fold the tested concentration and stored at -70 degrees C prior to their use. All drugs and investigational agents were tested over a range starting from a high concentration at or near the clinical Cmax and decreasing in half-log increments. If the clinical Cmax for an agent had not been determined, the highest concentration tested was 10 microM.
Cell Culture. All cells were maintained in an incubator at 37 degrees C and 5% CO2 with 95% humidity. The PDC lines were cultured according to standard operating procedures established by the NCI PDMR (https://pdmr.cancer.gov/sops/default.htm). All PDCs were thawed and cultured in Matrigel-coated flasks prepared with a working solution of 1X Ham's F-12 nutrient mix, without supplementation (Invitrogen, Waltham, MA, cat. 11765054), 100 U/mL penicillin-streptomycin (Invitrogen, cat. 15140122), and 2.5% Matrigel (Corning Inc., Corning, NY, cat. 354248) for the first three passages. The 354836-022-R-J1-PDC, 475296-252-R-J1-PDC, and 997726-040-R-J2-PDC lines were cultured in 6A media, which includes advanced DMEM/F-12 (Thermo Fisher Scientific, cat. 12634028), 10 mM HEPES (Thermo Fisher Scientific, cat. 15630080), 1X GlutaMAX supplement (Thermo Fisher Scientific, cat. 35050061), 0.1 mg/mL primocin (InvivoGen, San Diego, CA, cat. ant-pm-2), 10% defined fetal bovine serum, heat inactivated (HyClone Laboratories Inc., Logan, UT, cat. SH30070.03HI), 50% L-WRN conditioned media (ATCC, cat. CRL-3276), 1.25 mM N-Acetyl-L-cysteine (Sigma-Aldrich, cat. A9165), 10 mM nicotinamide (Sigma-Aldrich, cat. N0636), 1X B-27 supplement (Thermo Fisher Scientific, cat. 17504044), 1X N-2 supplement (Thermo Fisher Scientific, cat. 17502048), and 10 microM Y-27632 dihydrochloride (Tocris Bioscience, Bristol, United Kingdom, cat. 1254). The 624824-186-R-J2-PDC line was cultured in 6C/Colon 1B media, which includes all 6A media components plus 50 ng/mL human EGF recombinant protein (Thermo Fisher Scientific, cat. PHG0311). […]

Where [1] appears, read: compound alone, run of 05/08/2023.
Setting [2] is: compound alone, run of 05/09/2023.

Several values for one entry are separate records, joined by “and”; a condition that tells them apart may be missing. Identical values can stand only once.
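Further: viability read 7 days after compound addition.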

For `CC(=O)c1c(C)c2cnc(Nc3ccc(N4CCNCC4)cn3)nc2n(C2CCCC2)c1=O`, the viability, T/C runs as follows: (compound 0.000316 µM) 112% and 99.6% and 105%; (compound 0.001 µM) 110% and 101% and 102%; (compound 0.00316 µM) 103% and 113% and 106%; (compound 0.01 µM) 108% and 111% and 103%; (compound 0.0316 µM) 99.5% and 106% and 104%; (compound 0.1 µM) 89.5% and 91.3% and 105%. Besides, the IC50 (curve of compound) was greater than 100 nM.

For `CC(C)NCC(C(=O)N1CCN(c2ncnc3c2C(C)CC3O)CC1)c1ccc(Cl)cc1` (configuration not stated), the viability, T/C is, setting by setting: (compound 0.0316 µM) 99.5% [middle of 4 runs]; (compound 0.1 µM) 95.4% [middle of 4 runs]; (compound 0.316 µM) 98.5% [middle of 4 runs]; (compound 1 µM) 99.6% [middle of 4 runs]; (compound 3.16 µM) 89.5% [middle of 4 runs]; (compound 10 µM) 80.2% [middle of 4 runs]. Besides, under “curve of compound”, the concentration for half-maximal inhibition (IC50) was greater than 10000 nM.

Take `CC(C)n1nc(-c2ccc3oc(N)nc3c2)c2c(N)ncnc21`: the viability, T/C reads like this: (compound 0.000316 µM) 101% [middle of 4 runs]; (compound 0.001 µM) 88.2% and 95% (2×) and 92.1%; (compound 0.00316 µM) 96.8% [middle of 4 runs]; (compound 0.01 µM) 96.1% [middle of 4 runs]; (compound 0.0316 µM) 81.6% [middle of 4 runs]; (compound 0.1 µM) 52.2% [middle of 4 runs]. Besides, the IC50 (curve of compound) is 84.8 nM and 92.4 nM and > 100 nM.

For the molecule `CC(Cn1ccc(-c2ccc(C#N)c(Cl)c2)n1)NC(=O)c1cc(C(C)O)[nH]n1` (configuration not stated), the viability, T/C was 109% and 95.2% and 110% (compound 0.0316 µM); 107% and 94.8% and 102% (compound 0.1 µM); 109% and 108% and 101% (compound 0.316 µM); 117% and 108% and 106% (compound 1 µM); 98.7% and 110% and 107% (compound 3.16 µM); 103% and 102% and 108% (compound 10 µM). Also, the IC50 (curve of compound) is greater than 10000 nM.

With `CC(Nc1ccc2c(c1)OCCn1cc(N3C(=O)OCC3C(F)F)nc1-2)C(N)=O` (configuration not stated), the viability, T/C is, setting by setting: (compound 0.00316 µM) 99.8% [middle of 8 runs]; (compound 0.01 µM) 100% [middle of 8 runs]; (compound 0.0316 µM) 96.4% [middle of 8 runs]; (compound 0.1 µM) 83.7% [middle of 8 runs]; (compound 0.316 µM) 86% [middle of 8 runs]; (compound 1 µM) 83.1% [middle of 8 runs]. In addition, the IC50 under setting [1] is greater than 1000 nM.

`CC(Nc1ncnc2nc[nH]c12)c1cc2cccc(Cl)c2c(=O)n1-c1ccccc1` (configuration not stated): the viability, T/C was 102% [middle of 8 runs] (compound 0.0316 µM); 99.7% [middle of 8 runs] (compound 0.1 µM); 102% [middle of 8 runs] (compound 0.316 µM); 100% [middle of 8 runs] (compound 1 µM); 99.7% [middle of 8 runs] (compound 3.16 µM); 96.7% [middle of 8 runs] (compound 10 µM). Under setting [2], the IC50 is greater than 10000 nM.

Take `CC1(C)CCC(CN2CCN(c3ccc(C(=O)NS(=O)(=O)c4ccc(NCC5CCOCC5)c([N+](=O)[O-])c4)c(Oc4cnc5[nH]ccc5c4)c3)CC2)=C(c2ccc(Cl)cc2)C1`: the viability, T/C by setting is: (compound 0.0316 µM) 97.9% [middle of 4 runs]; (compound 0.1 µM) 95.5% [middle of 4 runs]; (compound 0.316 µM) 106% [middle of 4 runs]; (compound 1 µM) 103% [middle of 4 runs]; (compound 3.16 µM) 93.7% and 104% and 105% (2×).

Take `CCCS(=O)(=O)Nc1ccc(F)c(C(=O)c2c[nH]c3ncc(-c4ccc(Cl)cc4)cc23)c1F`: the viability, T/C is 102% (2×) and 106% and 94% (compound 0.0316 µM); 116% (2×) and 93.5% and 96.7% (compound 0.1 µM); 109% [middle of 4 runs] (compound 0.316 µM); 129% [middle of 4 runs] (compound 1 µM); 5.21% [middle of 4 runs] (compound 10 µM). Moreover, the IC50 (curve of compound) was 6.15 µM [middle of 4 runs].

Take `CCN1CCN(Cc2ccc(Nc3ncc(F)c(-c4cc(F)c5nc(C)n(C(C)C)c5c4)n3)nc2)CC1`: the viability, T/C by setting is: (compound 0.00316 µM) 101% [middle of 4 runs]; (compound 0.01 µM) 105% (2×) and 103% and 99.8%; (compound 0.0316 µM) 103% [middle of 4 runs]; (compound 0.1 µM) 102% (2×) and 100% and 96.4%; (compound 0.316 µM) 96.2% [middle of 4 runs]; (compound 1 µM) 84.8% [middle of 4 runs]. Also, under “curve of compound”, the IC50 was greater than 1000 nM.

In the case of `CNC(=O)c1ccc(N2C(=S)N(c3ccc(C#N)c(C(F)(F)F)c3)C(=O)C2(C)C)cc1F`, the viability, T/C by setting is: (compound 0.0316 µM) 104% [middle of 4 runs]; (compound 0.1 µM) 103% [middle of 4 runs]; (compound 0.316 µM) 98.2% [middle of 4 runs]; (compound 1 µM) 101% [middle of 4 runs]; (compound 3.16 µM) 102% and 108% (2×) and 105%; (compound 10 µM) 108% and 105% (2×) and 93.6%. Further, where the note is “curve of compound”, the IC50 was greater than 10000 nM.

Turning to `COc1c(OCCCN2CCOCC2)ccc2c3n(c(=NC(=O)c4cnc(N)nc4)nc12)CCN3`, the viability, T/C (compound 0.00316 µM) was 101% [middle of 8 runs]; the viability, T/C (compound 0.01 µM) is 95.7% [middle of 8 runs]; the viability, T/C (compound 0.0316 µM) is 80.6% [middle of 8 runs]; the viability, T/C (compound 0.1 µM) was 67.6% [middle of 8 runs]; the viability, T/C (compound 0.316 µM) was 51% [middle of 8 runs]; the viability, T/C (compound 1 µM) was 39.6% [middle of 8 runs]. The IC50 under setting [2] was 375 nM [middle of 8 runs].

Take `C[C@@H](NC(=O)c1ncnc(N)c1Cl)c1ncc(C(=O)Nc2cc(C(F)(F)F)c(Cl)cn2)s1`: the viability, T/C (compound 0.0316 µM) is 117% [middle of 4 runs]; the viability, T/C (compound 0.1 µM) was 112% [middle of 4 runs]; the viability, T/C (compound 0.316 µM) was 111% [middle of 4 runs]; the viability, T/C (compound 1 µM) was 114% [middle of 4 runs]; the viability, T/C (compound 3.16 µM) was 102% (2×) and 112% and 103%; the viability, T/C (compound 10 µM) was 78% [middle of 4 runs]. Also, the IC50 (curve of compound) is greater than 10000 nM.

`Cc1nc(NC(=O)N2CCCC2C(N)=O)sc1-c1ccnc(C(C)(C)C(F)(F)F)c1` (configuration not stated): the viability, T/C is 99.6% [middle of 7 runs] (compound 0.0316 µM); 94.8% [middle of 7 runs] (compound 0.1 µM); 84.8% [middle of 7 runs] (compound 0.316 µM); 80.8% [middle of 7 runs] (compound 1 µM); 74.6% [middle of 7 runs] (compound 3.16 µM); 63.1% [middle of 7 runs] (compound 10 µM). The IC50 under setting [1] was greater than 10000 nM.

In the case of `Cn1cnc2c(F)c(Nc3ccc(Br)cc3Cl)c(C(=O)NOCCO)cc21`, the viability, T/C reads like this: (compound 0.00949 µM) 89.7% [middle of 4 runs]; (compound 0.03 µM) 67.5% [middle of 4 runs]; (compound 0.0949 µM) 53.3% [middle of 4 runs]; (compound 0.3 µM) 35.9% [middle of 4 runs]; (compound 0.949 µM) 22.4% [middle of 4 runs]; (compound 3 µM) 12.2% (2×) and 12.7% and 13.3%. In addition, the IC50 (curve of compound) was 118 nM [middle of 4 runs].

Regarding `Cn1ncnc1[C@H]1c2n[nH]c(=O)c3cc(F)cc(c23)N[C@@H]1c1ccc(F)cc1`, the viability, T/C (compound 0.000316 µM) was 104% [middle of 4 runs]; the viability, T/C (compound 0.001 µM) was 107% [middle of 4 runs]; the viability, T/C (compound 0.00316 µM) is 101% [middle of 4 runs]; the viability, T/C (compound 0.01 µM) is 111% and 106% and 97% (2×); the viability, T/C (compound 0.0316 µM) was 112% [middle of 4 runs]; the viability, T/C (compound 0.1 µM) is 95.6% [middle of 4 runs]. For the same molecule, the IC50 (curve of compound) is greater than 100 nM.
